Laboratory results published in patent publication US10335373B2, “Tamper resistant and dose-dumping resistant pharmaceutical dosage form” (GRÜNENTHAL GMBH, priority 2012, dated 2019).
Counter-ions that a name gives are not always drawn.

C=CCN1CC[C@]23c4c5ccc(O)c4O[C@H]2C(=O)CC[C@@]3(O)[C@H]1C5 [naloxone hydrochloride]
solubility in aqueous ethanol: soluble
